The results in this text go back to patent US20250257064A1, “TRIFLUOROMETHYL-SUBSTITUTED SULFONAMIDE AS BCL-2-SELECTIVE INHIBITOR” (Chia Tai Tianqing Pharmaceutical Group Co., Ltd., priority 2018, published 2025).

In one data set the target is T1, BCL-2/BAK (Homo sapiens, UniProt P10415).
T1 construct: purchased Cisbio
Description: Screening on inhibitory activity for BCL-2/BAK binding (Cisbio HTRF kit). In outline:
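HTRF competition assay: Tag1-BCL-2 and Tag2-BAK working dilutions were 5 nM and 120 nM. Compound (200–0.0488 nM final, 4-fold, 7 points, duplicates) was incubated with the proteins for 15 min at 25 °C, then with Eu-cryptate/XL665 antibodies for ≥2 h at 25 °C. IC50 was derived from a four-parameter fit.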
For orientation: Time-resolved FRET reads energy transfer from a long-lived donor to a nearby acceptor.

Data set [1] deals with human platelet Caspase-3 activity. Put plainly: Human platelet toxicity experiment (Caspase-3 activity assay). In kind it is cell-based. Particulars: 90 min, data normalized, reference ABT-199. As for the experimental part:
Experimental Example 6: Human Platelet Toxicity Experiment (Caspase-3 Activity Assay)
10 mL of human whole blood was collected using a heparin sodium anticoagulation tube, mixed well by turning upside down, and centrifuged at 90 g for 10 min. The supernatant was collected and centrifuged at 1950 g for 10 min. The supernatant was discarded, and the residue was resuspended in 4 mL of PBS, and centrifuged at 1190 g for 5 min, and the procedure was repeated once. The supernatant was discarded, and the platelets were resuspended in PBS and adjusted to the density of 2-3×10^8 cells/mL. Cells were seeded into a 96-well plate at a density of 2-3×10^7 cells/mL and at 100 μL/well. 50 μL of control buffer was added to each negative control well, and 50 μL of compound at a corresponding concentration was added to each compound well, so that the final concentration of the compound was 2.5 μM, 2 μM, 1 μM or 0.5 μM, followed by incubation in an incubator at 37° C. for 90 min. The liquids in the 96-well plate were transferred to 1.5 mL centrifuge tubes, respectively. The tubes were centrifuged at 4° C. and 6000 g for 5 min, and placed on ice for later use after the supernatant was discarded. 5× lysis buffer was diluted into 1× lysis buffer with water in the kit, and protease inhibitor cocktail was added at a 1:200 ratio to prepare a lysis mixture for later use. 40 μL of lysis mixture was added to each centrifuge tube, and the platelets at the bottom were resuspended using a pipette. The suspension was lysed on ice for 15-20 min and centrifuged at 4° C. and 14,000 g for 10 min. The sample was sub-packaged for later use. 10× assay buffer was diluted into 1× assay buffer with water in the kit, and substrate Ac-DEVD-AMC was added at a 1:600 ratio to prepare a reaction mixture. 5 μL of assay buffer and 40 μL of reaction mixture were added to each blank control well. 5 μL of control platelet lysate and 40 μL of reaction mixture were added to each negative control well. 5 μL of platelet lysate and 40 μL of reaction mixture were added to each compound well. In this procedure, 40 μL of reaction mixture was added at last. The resulting mixture was mixed gently, and the plate was read by a PE Envision multi-functional microplate reader (excitation: 360 nm, emission: 460 nm) once every 10 min for 6 times. Caspase-3 activity was determined based on the intensity of the released AMC fluorescence, that is the slope of the fitted line to which each well corresponds represents Caspase activity (all data were normalized and the reference was ABT-199).

A further data set has as its target T2, BCL-XL/BAK (Homo sapiens, UniProt Q07817).
T2 construct: purchased Cisbio
Put plainly: Screening on inhibitory activity for BCL-XL/BAK binding (Cisbio HTRF kit). In outline:
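Tag1-BCL-XL and Tag2-BAK (2 nM and 80 nM before mixing) were combined with compounds at final 2000–0.488 nM (4-fold, 7 points, duplicates) for 15 min at 25° C. Eu3+ anti-Tag1 and XL665 anti-Tag2 were then added for ≥2 h at 25° C. HTRF (620/665 nm) gave IC50 by four-parameter fit.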

Another data set deals with RS4;11 cells. Put plainly: Inhibitory effect on proliferation of RS4;11 cells (CCK-8). The class given is cell-based, human. The method in brief:
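RS4;11 cells were seeded at 1×10^5 cells/mL in RPMI with 5% FBS and incubated 24 h at 37° C, 5% CO2 before compound addition in duplicate. Inhibition was calculated against untreated and blank controls. IC50 came from a four-parameter fit of log concentration versus inhibition.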

Data set [2] in a line: In vitro stability in mouse liver microsomes. Particulars: 1 μM. In kind it is in vitro ADME. As for the experimental part: (§1) Experimental Example 3: In Vitro Stability in Liver Microsome
(§2) 300 μL of the final incubation system contains 30 μL of liver microsomes (protein concentration: 5 mg/mL), 30 μL of NADPH+MgCl2, 3 μL of the test compound (in acetonitrile), and 237 μL of PBS buffer (pH 7.4), wherein the proportion of the organic solvent (acetonitrile) is 1% (volume ratio). Two duplicate samples were prepared for each specie (mouse, rat and human), and each sample was 0.3 mL. Each tube which was added with 270 μL of a mixed solution of substrate and enzyme, and NADPH, after being pre-incubated at 37° C. for 5 min, was added with 30 μL of NADPH+MgCl2 and mixed. Then 50 μL of the mixture was taken at 0 min, 15 min, 30 min and 60 min, and added with 300 μL of glacial acetonitrile containing an internal standard to terminate the reaction.
(§3) 50 μL of the incubated sample was added with 300 μL of glacial acetonitrile containing an internal standard (20 ng/mL diazepam) for precipitation, vortexed for 5 min, and centrifuged (13,000 rpm, 20° C.) for 10 min. 70 μL of supernatant was taken and diluted with 70 μL of ultrapure water. After being mixed well, 1 μL of the resulting sample was injected for analysis.

Data set [3] is described as follows: In vitro stability in human liver microsomes. The class given is in vitro ADME. Particulars: 1 μM. On the procedure: as §1, §2, §3
For orientation: Microsomes from liver hold many membrane-bound enzymes, among them those of drug oxidation.

Data set [4] is described as follows: In vitro stability in rat liver microsomes. In kind it is in vitro ADME. To be noted: 1 μM. As for the experimental part:
as §1, §2, §3

Each structure is given as a SMILES string.

In general, IC50 refers to the concentration that inhibits the measured activity by half.

T2 sequence (Q07817 whole entry, species assumed): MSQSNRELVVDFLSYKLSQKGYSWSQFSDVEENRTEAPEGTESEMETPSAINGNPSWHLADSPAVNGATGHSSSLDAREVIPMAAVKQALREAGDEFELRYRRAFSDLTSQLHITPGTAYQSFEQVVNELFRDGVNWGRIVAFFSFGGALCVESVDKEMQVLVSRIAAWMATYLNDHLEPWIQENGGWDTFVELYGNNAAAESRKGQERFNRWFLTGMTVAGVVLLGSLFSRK
T1 sequence (P10415 whole entry, species assumed): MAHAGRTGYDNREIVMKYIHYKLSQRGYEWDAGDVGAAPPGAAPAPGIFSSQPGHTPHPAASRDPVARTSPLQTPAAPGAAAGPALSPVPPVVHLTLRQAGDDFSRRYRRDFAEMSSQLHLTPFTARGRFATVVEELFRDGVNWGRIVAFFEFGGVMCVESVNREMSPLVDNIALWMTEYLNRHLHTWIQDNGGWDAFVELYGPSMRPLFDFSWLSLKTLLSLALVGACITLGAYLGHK

As for `CC1(C)CCC(CN2CCN(c3ccc(C(=O)NS(=O)(=O)c4ccc(NC[C@@H]5COCCO5)c([N+](=O)[O-])c4)c(Oc4cnc5[nH]ccc5c4)c3)CC2)=C(c2ccc(C(F)(F)F)cc2Cl)C1` [Compound 7-1], the IC50 on BCL-2/BAK was 3.5 nM; at BCL-XL/BAK, 289 nM; in the data set with RS4;11 cells (72 h), 4.6 nM. For the same molecule, the “human platelet Caspase-3 activity, Slope” value in data set [1] (compound concentration 1 μM) was found to be 0.48.
In the case of `CC(=O)N1CCOC(CNc2ccc(S(=O)(=O)NC(=O)c3ccc(N4CCN(CC5=C(c6ccc(C(F)(F)F)cc6Cl)CC(C)(C)CC5)CC4)cc3Oc3cnc4[nH]ccc4c3)cc2[N+](=O)[O-])C1` (stereo not drawn) [Compound 9-1, 4-(4-{[2-(2-chloro-4-trifluoromethylphenyl)-4,4-dimethylcyclohex-1-enyl]methyl}-piperazin-1-yl)-N-({3-nitro-4-[((4-acetylmorpholin-2-yl)methyl)amino]phenyl}sulfonyl)-2-(1H-pyrrolo[2,3-b]pyridin-5-yloxy)-benzamide], the IC50 was 1.8 nM on BCL-2/BAK and 2.7 nM with RS4;11 cells (Homo sapiens, RS4-11, 72 h). Besides, the “Mouse Residual content after 60 min (%)” value in data set [2] is reported as 55.7%. In addition, the “Human Residual content after 60 min (%)” value in data set [3] stood at 69.8%. Also, in data set [4], the “Rat Residual content after 60 min (%)” value was 101.7%.
In the case of `CN1CCC(CCCNc2ccc(S(=O)(=O)NC(=O)c3ccc(N4CCN(CC5=C(c6ccc(C(F)(F)F)cc6Cl)CC(C)(C)CC5)CC4)cc3Oc3cnc4[nH]ccc4c3)cc2[N+](=O)[O-])CC1` [Compound 17-1, 4-(4-{[2-(2-chloro-4-trifluoromethylphenyl)-4,4-dimethylcyclohex-1-enyl]methyl}-piperazin-1-yl)-N-({3-nitro-4-[(3-(1-methylpiperidin-4-yl)propyl)amino]phenyl}sulfonyl)-2-(1H-pyrrolo[2,3-b]pyridin-5-yloxy)-benzamide], the IC50 on BCL-2/BAK came to 2 nM; with RS4;11 cells (Homo sapiens, RS4-11, 72 h), 2.9 nM. Further, the “human platelet Caspase-3 activity, Slope” value in data set [1] (compound concentration 1 μM) was determined as 0.48.
The matching figures for `CN1CCC(CCNc2ccc(S(=O)(=O)NC(=O)c3ccc(N4CCN(CC5=C(c6ccc(C(F)(F)F)cc6Cl)CC(C)(C)CC5)CC4)cc3Oc3cnc4[nH]ccc4c3)cc2[N+](=O)[O-])CC1` [Compound 18-1, 4-(4-{[2-(2-chloro-4-trifluoromethylphenyl)-4,4-dimethylcyclohex-1-enyl]methyl}-piperazin-1-yl)-N-({3-nitro-4-[(2-(1-methylpiperidin-4-yl)ethyl)amino]phenyl}sulfonyl)-2-(1H-pyrrolo[2,3-b]pyridin-5-yloxy)-benzamide]: 2.7 nM, 4.3 nM and 0.31.
Take `CCN1CCC(CCNc2ccc(S(=O)(=O)NC(=O)c3ccc(N4CCN(CC5=C(c6ccc(C(F)(F)F)cc6Cl)CC(C)(C)CC5)CC4)cc3Oc3cnc4[nH]ccc4c3)cc2[N+](=O)[O-])CC1` [Compound 19-1, 4-(4-{[2-(2-chloro-4-trifluoromethylphenyl)-4,4-dimethylcyclohex-1-enyl]methyl}-piperazin-1-yl)-N-({3-nitro-4-[(2-(1-ethylpiperidin-4-yl)ethyl)amino]phenyl}sulfonyl)-2-(1H-pyrrolo[2,3-b]pyridin-5-yloxy)-benzamide]: the IC50 stood at 2.5 nM at BCL-2/BAK and 3.5 nM in the data set on RS4;11 cells (Homo sapiens, RS4-11, 72 h). Moreover, the “human platelet Caspase-3 activity, Slope” value in data set [1] (compound concentration 1 μM) came to 0.12.
On the same counts, the results for `CC1(C)CCC(CN2CCN(c3ccc(C(=O)NS(=O)(=O)c4ccc(NCCC5CCN(CCF)CC5)c([N+](=O)[O-])c4)c(Oc4cnc5[nH]ccc5c4)c3)CC2)=C(c2ccc(C(F)(F)F)cc2Cl)C1` [Compound 20-1, 4-(4-{[2-(2-chloro-4-trifluoromethylphenyl)-4,4-dimethylcyclohex-1-enyl]methyl}-piperazin-1-yl)-N-({3-nitro-4-[(2-(1-(2-fluoroethyl)piperidin-4-yl)ethyl)amino]phenyl}sulfonyl)-2-(1H-pyrrolo[2,3-b]pyridin-5-yloxy)-benzamide] are 2.1 nM, 3.9 nM and 0.37.
As for `CC1(C)CCC(CN2CCN(c3ccc(C(=O)NS(=O)(=O)c4ccc(NC[C@@H]5CCCOC5)c([N+](=O)[O-])c4)c(Oc4cnc5[nH]ccc5c4)c3)CC2)=C(c2ccc(C(F)(F)F)cc2Cl)C1` [Compound 43-1, (S)-4-(4-{[2-(2-chloro-4-trifluoromethylphenyl)-4,4-dimethylcyclohex-1-enyl]methyl}-piperazin-1-yl)-N-({3-nitro-4-[((tetrahydropyran-3-yl)methyl)amino]phenyl}sulfonyl)-2-(1H-pyrrolo[2,3-b]pyridin-5-yloxy)-benzamide], the IC50 at BCL-2/BAK was 1.8 nM; on BCL-XL/BAK, 121 nM; in the data set with RS4;11 cells (Homo sapiens, RS4-11, 72 h), 1.9 nM. Also, the “human platelet Caspase-3 activity, Slope” value in data set [1] (compound concentration 0.5 μM) was determined as 0.19; in data set [1] (compound concentration 2 μM), 0.09.
The matching figures for `CCS(=O)(=O)N1CCOC(CNc2ccc(S(=O)(=O)NC(=O)c3ccc(N4CCN(CC5=C(c6ccc(C(F)(F)F)cc6Cl)CC(C)(C)CC5)CC4)cc3Oc3cnc4[nH]ccc4c3)cc2[N+](=O)[O-])C1` (stereo not drawn) [Compound 57-1, 4-(4-{[2-(2-chloro-4-trifluoromethylphenyl)-4,4-dimethylcyclohex-1-enyl]methyl}-piperazin-1-yl)-N-({3-nitro-4-[((4-(ethylsulfonyl)morpholin-2-yl)methyl)amino]phenyl}sulfonyl)-2-(1H-pyrrolo[2,3-b]pyridin-5-yloxy)-benzamide]: 3.4 nM, 268 nM, 2.3 nM, 0.08 and 0.04.
As for `CC(=O)N1CCO[C@H](CNc2ccc(S(=O)(=O)NC(=O)c3ccc(N4CCN(CC5=C(c6ccc(C(F)(F)F)cc6Cl)CC(C)(C)CC5)CC4)cc3Oc3cnc4[nH]ccc4c3)cc2[N+](=O)[O-])C1` [Compound 65-1, (R)-4-(4-{[2-(2-chloro-4-trifluoromethylphenyl)-4,4-dimethylcyclohex-1-enyl]methyl}-piperazin-1-yl)-N-({3-nitro-4-[((4-acetylmorpholin-2-yl)methyl)amino]phenyl}sulfonyl)-2-(1H-pyrrolo[2,3-b]pyridin-5-yloxy)-benzamide], the IC50 worked out at 1.5 nM on BCL-2/BAK; 134 nM on BCL-XL/BAK; 1.8 nM in the data set on RS4;11 cells (Homo sapiens, RS4-11, 72 h). Also, the “human platelet Caspase-3 activity, Slope” value in data set [1] (compound concentration 0.5 μM) came out at 0.44; in data set [1] (compound concentration 2 μM) it was 0.43.
